Entries after “also recorded” stand apart in the source; their conditions may differ. Where two headings read alike, the source gives them in different places.
Tests used:
amidase = assay: Stability in the presence of amidase and amidase inhibitors in PBS; assay type: biochemical; settings: amidase 50 units in PBS
Experimental: Stability of COMPOUND A in the Presence of Amidase in Pure System. […] Test article (COMPOUND A) stock solution was prepared in 100% DMSO at a concentration of 10 mM. An aliquot (50 μL) of test article stock solution was added to 950 μL of PBS with and without amidase (50 units) in 1.5 mL tubes, and the mixture was vortexed and incubated at 37° C. with 5% CO2 for 120 min. Samples (50 μL) were taken at 0, 15, 30, 60, and 120 min after being vortexed. Samples were quenched in 150 μL acetonitrile/0.1% formic acid solution and briefly vortexed then immediately frozen at −80° C. Stability was determined by measuring loss of parent compound using LC/MS/MS methods. Each exposure condition and time point were done in triplicate.
Stability of COMPOUND A in the Presence of Amidase and Amidase Inhibitors in a Phosphate-buffered Saline (PBS). To confirm inhibition of the amidase, individual inhibitors were added to PBS with amidase (50 units). A solution without amidase and without inhibitors was also tested as a control. The individual inhibitors tested were Chloroacetone at 200 μM and MAFP at 40 nM. Amidase solution was prepared as described above and inhibitors were added to the solutions to the intended concentrations. […] Stability was determined by measuring loss of parent compound using LC/MS/MS methods. […]

immobility = assay: Tail suspension test (TST)
Experimental: The tail suspension test is an experimental method used in scientific research to measure a state of being helpless in rodents, especially in mice. It is based on the observation that if a mouse is subjected to short term inescapable stress then the mouse will stop struggling. Immobility is quantified by measuring the amount of time lacking whole body activity.
The immobilized time in the last 4 min of the TST, which indicated depression-like behavior, was quantified using offline video manual scoring in a blinded manner.
Animals. Adult (7 to 8 weeks) male mice (C57Bl/6, Charles River Laboratories) were used in the study. Upon arrival, animals were group-housed (5/cage) with access to food and water ad libitum. Animals were maintained on a 12/12-hour light/dark cycle in a temperature—(22±2° C.) and humidity—(approx. 50%) controlled room. Animals were numbered consecutively by tail marks. Each cage was identified by a card indicating the study number, sex, animal numbers and date of birth.
Test article formulations were prepared fresh based on weight-to-volume in the vehicle on each dosing day. […] The appearance of the formulations was clear, with no precipitations. […] A vehicle group was included for comparison.
Monitoring. A piezoelectric sensor operated by the SmartCage system was utilized and video recording was conducted for scoring. After animals acclimated to the testing room, an individual mouse's tail was placed onto the piezoelectric sensor-board and the mouse was hung upside down, which signaled the immediate start of the recording of struggle activity, and it lasted for 6 min. The mouse was then taken off and returned to the home cage. The immobilized time, indicating depression-like behavior, was quantified using manual scoring of the video recordings for the period from 120 seconds to 360 seconds during TST. The percent immobility time was calculated: (immobility time/240 seconds)*100.
The immobilized time in the last 4 min of the TST, which indicates depression-like behavior, was quantified using offline video manual scoring in a blinded manner.
Animals. Adult (8 weeks, approximately 20-25 g) male mice (C57Bl/6, Vendor: Charles River Laboratories) were used in the study. Upon arrival, animals were group-housed (5/cage) with access to food and water ad libitum. Animals were maintained on a 12/12-hour light/dark cycle in a temperature—(22±2° C.) and humidity—(35-50%) controlled room. Animals were numbered consecutively by tail ID. Each cage was identified by a colored card indicating the study number, sex, animal numbers and date of birth.
Test article formulations were prepared fresh based on weight-to-volume in the vehicle on dosing day. […] The appearance of the formulations was clear, with no precipitations.
The tail suspension test is an experimental method used in scientific research to measure a state of being helpless in rodents, especially in mice. It is based on the observation that if a mouse is subjected to short term inescapable stress then the mice will give up struggling. “Immobility” is quantified by measuring the amount of time during which the animal has no whole-body activity.
Tail Suspension Test (TST). A piezoelectric sensor operated by the SmartCage system was utilized and video recording was conducted for scoring. Once animals were acclimated to the testing room, the TST was initiated by placing the tail of the test mouse onto the piezoelectric sensor-board and hanging the mouse upside down. The recording period was initiated once the mouse was upside down and lasted for 6 min. After the recording period, the mouse was removed from the recording device and returned to its home cage.

[1] = PK after single PO administration of COMPOUND A
[2] = Plasma stability in rat plasma; assay type: in vitro ADME, Sprague Dawley rat; settings: final concentration 2 μM
Experimental: A study was conducted to examine the plasma stability. Test Compounds: COMPOUND D, COMPOUND E, and Viloxazine. Positive controls: Enalapril and Propantheline.
A study was conducted to examine the bioanalytical data for compounds in Rat plasma. Frozen Sprague Dawley rat (male pooled) and human (mixed gender) plasma was utilized for the study. Test compounds were dissolved in dimethyl sulfoxide (DMSO) to make a 10 mM stock solution. A working solution was made with MeOH/water. COMPOUND E ([…]) was incubated with plasma in duplicates at 37° C. in a water bath. Sampling timepoints included 0, 5, 15, 30, and 60 min Enalapril and propantheline were used as positive control for rat and human plasma at 2 μM

[3] = assay type: in vitro ADME; settings: Rat plasma, wet ice bath
Experimental: A study was conducted to examine the bioanalytical data for compounds in Rat plasma. […] Frozen Sprague Dawley rat (male pooled) and human (mixed gender) plasma was utilized for the study. Test compounds were dissolved in dimethyl sulfoxide (DMSO) to make a 10 mM stock solution. A working solution was made with MeOH/water. […]

[4] = assay type: in vitro ADME, mouse; settings: mice Blood, wet ice bath, 5% Paraoxon ethyl as stabilizer; for % stability: 0.5 hr
[5] = Preclinical PK: plasma viloxazine after PO dosing of COMPOUND D or COMPOUND E; assay type: in vivo, mouse; settings: individual mice
Experimental: A study was conducted for preclinical PK performance of COMPOUND D and COMPOUND E. Please see below for details on the study, with fasted mice orally dosed with COMPOUND D or COMPOUND E.
Relevant data are summarized in below tables (ND=Not determined (Parameters not determined due to inadequately defined terminal elimination phase. BQL=Below the lower limit of quantitation (LLOQ). If the adjusted rsq (linear regression coefficient of the concentration value on the terminal phase) is less than 0.9, T1/2 might not be accurately estimated. If the % AUCExtra>20%, AUC0-inf, Cl, MRT0-inf and Vdss might not be accurately estimated. If the % AUMCExtra>20%, MRT0-inf and Vdss might not be accurately estimated. a: Bioavailability (%) was calculated using AUC0-inf (% AUCExtra<20%) or AUC0-last (% AUCExtra>20%) with nominal dose)

[6] = 5% Paraoxon ethyl as stabilizer, HQC, 0 hr sample
[7] = 5% Paraoxon ethyl as stabilizer, HQC, 1 hr
[8] = 5% Paraoxon ethyl as stabilizer, HQC, 1 hr sample
[9] = 5% Paraoxon ethyl as stabilizer, HQC, 2 hr
[10] = 5% Paraoxon ethyl as stabilizer, HQC, 2 hr sample
[11] = 5% Paraoxon ethyl as stabilizer, LQC, 0 hr sample
[12] = 5% Paraoxon ethyl as stabilizer, LQC, 1 hr
[13] = 5% Paraoxon ethyl as stabilizer, LQC, 1 hr sample
[14] = 5% Paraoxon ethyl as stabilizer, LQC, 2 hr
[15] = 5% Paraoxon ethyl as stabilizer, LQC, 2 hr sample
[16] = No stabilizer, HQC, 0 hr sample
[17] = No stabilizer, HQC, 1 hr sample
[18] = No stabilizer, HQC, 2 hr sample
[19] = No stabilizer, LQC, 0 hr sample
[20] = No stabilizer, LQC, 1 hr sample
[21] = No stabilizer, LQC, 2 hr sample

Structure (SMILES)	% Remaining at 60 min (Mean) [2] [%]	Mean peak area ratio [3, 6]	% stability [3, 7] [%]	Mean peak area ratio [3, 8]	% stability [3, 9] [%]	Mean peak area ratio [3, 10]	Mean peak area ratio [3, 11]	% stability [3, 12] [%]	Mean peak area ratio [3, 13]	% stability [3, 14] [%]	Mean peak area ratio [3, 15]	Mean peak area ratio [3, 16]	% stability ([3]; No stabilizer, HQC, 1 hr) [%]	Mean peak area ratio [3, 17]	% stability ([3]; No stabilizer, HQC, 2 hr) [%]	Mean peak area ratio [3, 18]	Mean peak area ratio [3, 19]	% stability ([3]; No stabilizer, LQC, 1 hr) [%]	Mean peak area ratio [3, 20]	% stability ([3]; No stabilizer, LQC, 2 hr) [%]	further results
CCOc1ccccc1OC[C@@H]1CN(C(=O)OC(C)OC(=O)[C@@H](N)C(C)C)CCO1 (stereo partly shown) [COMPOUND A]																					role of amidase in degradation (amidase): amidase activity played an important role; decrease of immobility compared to vehicle (immobility; COMPOUND A 32 mg/kg PO): 30%; percent immobility time (immobility; COMPOUND A 4, 8, 16, 32 mg/kg PO, ANOVA p=0.006): significant reduction in immobility; Clinical observation (tolerability) ([1]; 60 or 120 mg/kg PO): well tolerated; enantiomer R(+)-VLX in plasma ([1]; COMPOUND A 60 or 120 mg/kg PO, LLOQ 1.5 ng/mL): not detectable at most time points; plasma concentration of the derivative itself ([1]; COMPOUND A 60 or 120 mg/kg PO, LLOQ 3 ng/mL): not detectable; also recorded: below LLOQ in all the samples collected
CCOc1ccccc1OC[C@@H]1CN(C(=O)OC(OC(=O)[C@H](N)C(C)C)C(C)C)CCO1 (stereo partly shown) [COMPOUND C]																					percent immobility time (immobility; COMPOUND C 30 mg/kg PO, dose-response study, vs vehicle): tendency in decreasing immobility; percent immobility time (immobility; COMPOUND C 30 mg/kg PO, follow-up study, vs vehicle (p=0.43)): no significant reduction in immobility; percent immobility time (immobility; COMPOUND C 10, 30, 60, 90 mg/kg PO 30 min prior, ANOVA across all doses): no significant reduction in immobility
CCOc1ccccc1OCC1CN(C(=O)OC(C)OC(=O)[C@H](N)C(C)C)CCO1 (stereo partly shown) [COMPOUND D]	0.0	1.83	58.7	1.07	26.0	0.47	0.00608	57.3	0.00348	36.9	0.00224	0.67	31.2	0.21	8.0	0.05	0.00292	30.1	0.00088	6.8	Mean peak area ratio [3, 21]: 0.0002; Mean peak area ([4]; HQC, 0 hr sample): 1.315; % stability ([4]; HQC): 52%; Mean peak area ([4]; HQC, 0.5 hr sample): 0.682; Mean peak area ([4]; LQC, 0 hr sample): 0.00479; % stability ([4]; LQC): 54.7%; Mean peak area ([4]; LQC, 0.5 hr sample): 0.00262; Plasma concentration of Viloxazine ([5]; COMPOUND D PO 19.74 mg/kg, 8.00 h): BQL; Plasma concentration of Viloxazine ([5]; COMPOUND D PO 19.74 mg/kg, 24.0 h): BQL
CCOc1ccccc1OCC1CN(C(=O)OC(OC(=O)[C@@H](N)C(C)C)C(C)C)CCO1 (stereo partly shown) [COMPOUND E]	0.0	3.38	79.5	2.69	62.9	2.13	0.00882	68.3	0.00602	63.7	0.00562	1.58	20.9	0.33	2.5	0.04	0.00472	28.2	0.00133	5.3	Mean peak area ratio [3, 21]: 0.00025; Mean peak area ([4]; HQC, 0 hr sample): 2.903; % stability ([4]; HQC): 103%; Mean peak area ([4]; HQC, 0.5 hr sample): 3.00; Mean peak area ([4]; LQC, 0 hr sample): 0.00933; % stability ([4]; LQC): 86.3%; Mean peak area ([4]; LQC, 0.5 hr sample): 0.00806; Plasma concentration of Viloxazine ([5]; COMPOUND E PO 20.99 mg/kg, 8.00 h): BQL; Plasma concentration of Viloxazine ([5]; COMPOUND E PO 20.99 mg/kg, 24.0 h): BQL

From patent US20240343699A1, “DERIVATIVES OF SUBSTITUTED MORPHOLINES AND USES THEREOF” (Supernus Pharmaceuticals, Inc., priority 2023, published 2024)
